From PMC11995078, “Protocol for high-throughput screening of SIRT7 inhibitors using fluorescent peptide technology” (STAR Protocols, 2025)

Molecular target: T1, Sirtuin 7 (SIRT7) (Homo sapiens, UniProt Q9NRC8)
T1 construct: his-tagged full length SIRT7 (pET-28a, E. coli BL21(DE3))
T1 sequence (Q9NRC8 1-400): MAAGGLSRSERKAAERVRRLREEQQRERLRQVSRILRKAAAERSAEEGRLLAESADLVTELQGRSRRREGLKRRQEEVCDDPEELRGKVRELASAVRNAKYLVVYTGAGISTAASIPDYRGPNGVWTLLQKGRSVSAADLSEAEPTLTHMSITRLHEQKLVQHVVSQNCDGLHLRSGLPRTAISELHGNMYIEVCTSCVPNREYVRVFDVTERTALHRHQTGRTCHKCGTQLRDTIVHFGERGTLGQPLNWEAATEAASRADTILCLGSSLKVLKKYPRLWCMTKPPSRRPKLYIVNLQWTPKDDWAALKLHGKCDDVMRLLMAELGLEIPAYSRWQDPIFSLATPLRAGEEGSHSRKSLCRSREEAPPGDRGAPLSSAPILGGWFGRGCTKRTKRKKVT
Assay: fluorescent MCA-peptide (H3K18) deacylation assay with purified SIRT7, dose-response
Type: biochemical

IC50: 12.7 µM
Compound: COC(=O)/C(=C\C(=O)c1ccc(O)c(O)c1)c1ccc(O)c(O)c1 [YZL-51N]
